This assay concerns Normal human adipocytes. Kind of assay: lipid synthesis in suspended adipocytes (incorporation of radio-labelled acetate). It is filed as cell-based. The note with it: 10 μM; reference molecule, inhibitor of FAS. Here is the method:
Normal human adipocytes were isolated from abdominal biopsies (plastic surgery). Immediately after receipt, the samples were incubated for 30 min at 37° C. in the presence of collagenase (Sigma). The suspension of adipocytes is then rinsed and diluted 3 times in the culture medium.
Culture medium: bicarbonate (Life Technologies) 1.87 mg/ml, penicillin/streptomycin (Life Technologies) 25 IU/ml/25 μg/ml, glutamine (Life Technologies) 2 mM, MEM (Merck Eurolab) 100% v/v, albumin of bovine origin (Sigma) 0.5% w/v.
The suspended adipocytes are incubated for 1 h at 37° C. in the presence of different concentrations of MA105 (20 and 2 ppm) diluted in THF (tetrahydrofurane). A […] volume of radio-labelled acetate (2-C^14, 60.87 μCi/ml, Amersham) is then added to the preparation. After 4 hrs of incubation, the lipids are extracted according to the procedure described by Bligh and Dyer (methanol/chloroform/water), evaporated under nitrogen and the incorporated radioactivity was quantitated by liquid scintillation (LKB 1210 Rackbeta).

As for `C/C=C/C/C=C/CCC(=O)[C@H]1O[C@H]1C(N)=O` [ceruline], the “inhibition of the incorporation of acetate” value came out at 75 % inhibition/control.

The values above are taken from patent US20080045594A1, “Use of at Least One Conjugated Triene-Containing Fatty Acid for Preparing a Medicine for Treating Inflammation” (LABORATOIRES EXPANSCIENCE, priority 2004, published 2008).
